Data: patent US8323971B2, “Differentiation of pluripotent cells into primary germ layer progenitors” (Cambridge Enterprise Limited, priority 2006, dated 2012)

Tested on: hESCs
Test: Real time PCR of hESCs after addition of BMP4 in CDM (extra-embryonic differentiation)
Format: cell-based, human
Settings: 10 ng/ml in CDM
Protocol: hESCs grown in Feeder free and serum free conditions were harvested using 5 mg/ml collagenase IV then plated into plates pre-coated with fibronectin. hESCs were grown for 48 hours in CDM supplemented with Activin (10 ng/ml, RandD systems) and FGF2 (12 ng/ml, RandD systems). To induce extra-embryonic differentiation, hESCs were grown for 5 additional days in CDM supplemented with BMP4 (10 ng/ml, RandD systems). To obtain neuroectoderm progenitors, hESCs were grown in CDM or in CDM-PVA in the presence of SB431542 (10 μM Tocris) and FGF2 (12 ng/ml, RandD systems) for 7 additional days. The resulting cells were grown in non-adherent conditions for 10 days and then plated back for 5 additional days in CDM to obtain fully differentiated neuronal cells. To obtain mesendoderm precursors, hESCs were grown for 3 additional days in CDM-PVA in the presence of SU5402 (10 μM, Calbiochem) and Activin (5 ng/ml, RandD systems). On the fifth day after passaging, the resulting cells were grown in CDM-PVA in the presence of BMP4 (10 ng/ml, RandD systems), FGF2 (20 ng/ml, RandD systems) and Activin (30 ng/ml or 100 ng/ml, RandD systems).
Total RNAs were extracted from hESCs or differentiated progenitors using the RNeasy Mini or Micro Kits (Qiagen). Each sample was treated with RNAse-Free DNAse (Qiagen) in order to avoid DNA contamination. […]

## BMP4: Bone Morphogenetic Protein 4 growth factor
  expression of extra-embryonic markers including GATA6 and H19: strongly enhanced
After 16 hours
  level of Oct-4 transcripts: significant decrease
